# Assay results taken from patent US20120015396A1, “COMPOSITIONS AND METHODS FOR MODULATING THE ACID-SENSING ION CHANNEL (ASIC)” (Department of Veteran's Affair, United States Technology …, priority 2002, published 2012).
# Key:
# ASIC channels = molecular target: T1, ASIC channels (Homo sapiens, UniProt P78348); conditions: cited from earlier work
# T1 sequence (P78348 1-528): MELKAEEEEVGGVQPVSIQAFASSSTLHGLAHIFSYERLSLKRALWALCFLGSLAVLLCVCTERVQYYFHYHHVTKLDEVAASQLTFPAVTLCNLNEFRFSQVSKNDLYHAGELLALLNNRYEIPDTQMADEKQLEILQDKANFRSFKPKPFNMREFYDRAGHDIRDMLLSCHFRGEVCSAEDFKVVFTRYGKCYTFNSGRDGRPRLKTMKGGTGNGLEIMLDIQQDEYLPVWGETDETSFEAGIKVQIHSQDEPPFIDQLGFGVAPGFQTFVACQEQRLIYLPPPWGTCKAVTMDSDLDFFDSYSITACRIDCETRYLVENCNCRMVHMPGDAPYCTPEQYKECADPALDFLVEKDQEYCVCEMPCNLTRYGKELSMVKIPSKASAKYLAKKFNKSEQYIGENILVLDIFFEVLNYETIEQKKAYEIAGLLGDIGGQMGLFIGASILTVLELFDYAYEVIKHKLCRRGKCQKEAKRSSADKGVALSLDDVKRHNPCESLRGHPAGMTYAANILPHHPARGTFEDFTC
# cortical neurons = conditions: primary cultures of cortical neurons; cited from earlier work
# [1] = tested on: Schaffer collateral-CA1 synapses in hippocampal slices; assay: Baseline field EPSP recording in hippocampal slices; type: cell-based; conditions: KA 5 mM; slices from +/+ and −/− mice
# Description: (§1) Transverse hippocampal slices (350-400 μm) were prepared from wild type (+/+) and ASIC knock out (−/−) littermates at 2-4 months of age. For the LTP studies, the applicant was blinded to genotype. The slices were sectioned in ice-cold artificial cerebrospinal fluid (ACSF) containing (in mM) 119 NaCl, 2.5 KCl, 2.5 CaCl2, 1.0 NaH2PO4, 1.3 MgSO4, 26.2 NaHCO3, 11 glucose, pH 7.4, bubbled with 95% O2/5% CO2, and then were incubated in identical solution at 31° C. for 2-5 hours before recording.
# Standard extracellular field potential recording techniques were used. Experiments were performed in a submerged chamber, heated to 31±0.5° C. Field postsynaptic excitatory potentials (EPSPs) were evoked in CA1 stratum radiatum by stimulation of Schaffer collaterals with a bipolar stainless steel electrode that was put at the border of CA3-CA1 subfields and recorded with 3M NaCl-filled glass pipettes (<5 MSΩ) using a biological amplifier (WPI, Iso-DAME, FL., USA). A 100 μs test stimulation was delivered every 30 s by a stimulus isolation unit (Grass, SD9, Mass., USA). […] LTP was measured by normalizing the EPSP slopes after HFS to the mean slope of the baseline EPSP before HFS. Data were digitized (10 kHz), filtered at 1 kHz (eight-pole Bessel Filter), monitored on-line, and stored on hard disk using PULSE 8.41 (HEKA, Lambrecht, Germany). […]
# [2] = tested on: Schaffer collateral-CA1 synapses in hippocampal slices; assay: LTP induced by HFS in hippocampal slices; type: cell-based, mice; conditions: 10 μM PMA
# Description: as §1
# Standard extracellular field potential recording techniques were used. Experiments were performed in a submerged chamber, heated to 31±0.5° C. Field postsynaptic excitatory potentials (EPSPs) were evoked in CA1 stratum radiatum by stimulation of Schaffer collaterals with a bipolar stainless steel electrode that was put at the border of CA3-CA1 subfields and recorded with 3M NaCl-filled glass pipettes (<5 MSΩ) using a biological amplifier (WPI, Iso-DAME, FL., USA). A 100 μs test stimulation was delivered every 30 s by a stimulus isolation unit (Grass, SD9, Mass., USA). Input-output curves were obtained by plotting the stimulus voltage against the amplitude of EPSPs. […] Stimulus intensity was adjusted to evoke half-maximal responses. LTP was induced by a high-frequency stimulation (HFS, 100 Hz, 1 s, at test intensity). Paired-pulse facilitation (PPF) was observed by applying paired pulses with different intervals (20, 50 ms). LTP was measured by normalizing the EPSP slopes after HFS to the mean slope of the baseline EPSP before HFS. Data were digitized (10 kHz), filtered at 1 kHz (eight-pole Bessel Filter), monitored on-line, and stored on hard disk using PULSE 8.41 (HEKA, Lambrecht, Germany). Off-line analysis was performed by PATCHMACHINE 1.0 (Hoshi Laboratory, Philadelphia, Pa., USA) and IGORPRO 4.0 (WaveMetrics, Lake Oswego, Oreg., USA). Unless otherwise noted, two-sample t-test was used to calculate statistical
molecule,measurement,setting,value
neuropeptide FF,modulation of the response of ASIC channels to acid,ASIC channels,generating a sustained component of current
N=C(N)NC(=O)c1nc(Cl)c(N)nc1N [amiloride],effect on H+-evoked currents,cortical neurons,inhibition
"O=C(O)c1cc(=O)c2ccccc2[nH]1 [KA, kynurenic acid]",effect on baseline EPSPs,[1],abolished EPSPs
Phe-Met-Arg-Phe-NH2 [FMRFamide],modulation of the response of ASIC channels to acid,ASIC channels,generating a sustained component of current
"CCCCCCCCCCCCCC(=O)O[C@@H]1[C@@H](C)[C@@]2(O)[C@@H](C=C(CO)C[C@]3(O)C(=O)C(C)=C[C@@H]23)[C@@H]2C(C)(C)[C@]12OC(C)=O [PMA, phorbol 12-myristate 13-acetate]",Mean EPSP amplitude at 40 min. following HFS,[2]; +/+ slices,167±15%
same,Mean EPSP amplitude at 40 min. following HFS,[2]; −/− slices,158±11%
same,effect on LTP,[2]; −/− slices,restores LTP
